Data on 3 compounds can be found in paper PMC9661477, “New Dual P-Glycoprotein (P-gp) and Human Carbonic Anhydrase XII (hCA XII) Inhibitors as Multidrug Resistance (MDR) Reversers in Cancer Cells” (Journal of Medicinal Chemistry, 2022).

A word on the EC50: it is the concentration that produces a half-maximal response. In general, Ki refers to a measure of affinity in units of concentration, obtained from inhibition or displacement. In general, IC50 refers to the concentration that gives 50% inhibition. Usually Km stands for the substrate concentration at which the rate is half of its maximum.

Series [1] is described as follows: stability in human plasma, LC-MS/MS. As to conditions: reference compound, read-out: half-life (t1/2). The format is in vitro ADME. As to the method:
The chemical stability of all of these diester derivatives was evaluated in phosphate-buffered solution (PBS) and human plasma samples. The stability analyses were performed by liquid chromatography coupled with a triple quadrupole mass spectrometry system (LC-MS/MS), operating in multiple reaction monitoring (MRM) mode. The LC-MS/MS instrument and parameters used are reported in the Supporting Information.
In these assays, we monitored the variation of our diester molecules’ concentration at four different incubation times both in PBS and in human plasma samples to evaluate their susceptibility toward spontaneous or enzymatic hydrolysis, respectively. By plotting any variation of analyte concentration vs the incubation time, the corresponding degradation profiles in both the tested matrices were obtained. […] Therefore, by plotting the natural logarithm of the quantitative data versus the incubation time, a linear function can be used, and its slope represents the degradation rate constant (k). Accordingly, with the linear function, the half-life (t1/2) of each tested compound can be calculated as follows [drawing 1] […]
Each set of samples was incubated in triplicate at four different times, 0, 30, 60, and 120 min at 37 °C. […] The obtained sample solutions were analyzed by LC-MS/MS methods described in the Supporting Information.

Series [2] concerns the target T1, P-gp (Homo sapiens, UniProt P08183).
T1 construct: expressed in transfected cells; host or cells: MDCK-MDR1 (Madin-Darby Canine Kidney, transfected; gift from Prof; P. Borst, NKI-AVL)
Briefly: calcein-AM transport inhibition in MDCK-MDR1 cells. Type of series: cell-based. To be noted: mean ± SEM. As to the method:
(§1) The inhibiting activity of the two compounds on P-gp and MRP1 was evaluated by measuring the transport inhibition of the profluorescent probe calcein-AM (P-gp and MRP1 substrate) in MDCK-MDR1 and MDCK-MRP1 cells (P-gp- and MRP1-overexpressing cells, respectively). The activity on BCRP was instead evaluated using the fluorescent probe Hoechst 33342 (BCRP substrate) in MDCK-BCRP cells (BCRP-overexpressing cells).[43]
(§2) MDCK-MDR1, MDCK-MRP1, and MDCK-BCRP cells are a gift from Prof. P. Borst, NKI-AVL Institute, Amsterdam, The Netherlands. Cells were grown in Dulbecco’s modified Eagle’s medium (DMEM) high glucose supplemented with 10% fetal bovine serum, 2 mM glutamine, 100 U/mL of penicillin, and 100 μg/mL of streptomycin in a humidified incubator at 37 °C with a 5% CO2 atmosphere. Cell culture reagents were purchased from Celbio s.r.l. (Milano, Italy). CulturePlate 96/wells plates were purchased from PerkinElmer Life Science (Waltham, MA) and Falcon (BD Biosciences, Bedford, MA). Calcein-AM and Hoechst 33342 (bisbenzimide H 33342 trihydrochloride) were obtained from Sigma-Aldrich (Milan, Italy). The other reagents were purchased from Sigma Merck Millipore.

Series [3] deals with T2, MRP1 (Homo sapiens, UniProt P33527).
T2 construct: expressed in transfected cells; host or cells: MDCK-MRP1 (Madin-Darby Canine Kidney, transfected; gift from Prof; P. Borst, NKI-AVL)
Kind of series: calcein-AM transport inhibition in MDCK-MRP1 cells. The format is cell-based. As to conditions: NA, not active. As to the method: as §1, §2

Series [4] concerns the target T3, BCRP (Homo sapiens, UniProt Q9UNQ0).
T3 construct: expressed in transfected cells; host or cells: MDCK-BCRP (Madin-Darby Canine Kidney, transfected; gift from Prof; P. Borst, NKI-AVL)
T3 sequence (Q9UNQ0 1-655): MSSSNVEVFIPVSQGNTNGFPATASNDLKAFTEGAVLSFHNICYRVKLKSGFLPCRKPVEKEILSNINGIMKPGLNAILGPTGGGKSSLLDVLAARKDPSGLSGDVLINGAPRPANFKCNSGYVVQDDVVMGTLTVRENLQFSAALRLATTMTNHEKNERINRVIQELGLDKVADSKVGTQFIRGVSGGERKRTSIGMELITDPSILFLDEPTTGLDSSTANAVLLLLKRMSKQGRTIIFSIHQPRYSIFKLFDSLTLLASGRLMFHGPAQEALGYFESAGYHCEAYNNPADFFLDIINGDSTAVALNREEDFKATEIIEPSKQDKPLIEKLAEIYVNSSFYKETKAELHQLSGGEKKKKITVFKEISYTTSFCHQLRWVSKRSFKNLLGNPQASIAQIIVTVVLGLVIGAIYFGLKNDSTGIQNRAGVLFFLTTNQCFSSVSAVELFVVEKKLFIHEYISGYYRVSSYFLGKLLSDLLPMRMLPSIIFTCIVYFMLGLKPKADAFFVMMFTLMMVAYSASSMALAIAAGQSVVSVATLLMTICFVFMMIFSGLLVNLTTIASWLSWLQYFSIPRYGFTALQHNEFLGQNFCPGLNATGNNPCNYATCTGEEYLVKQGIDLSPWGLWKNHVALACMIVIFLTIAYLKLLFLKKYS
Briefly: Hoechst 33342 transport inhibition in MDCK-BCRP cells. To be noted: NA, not active. Type of series: cell-based. As to the method:
as §1, §2

The test system of series [5] is HT29/DOX cells. Kind of series: intracellular accumulation of doxorubicin in HT29/DOX cells. Type of series: cell-based, human. As to conditions: 24 h with 5 μM doxorubicin, compound at 1 and 3 μM, dose-dependent. The protocol:
(§3) A 50 μL aliquot was sonicated and used for the measurement of the protein content. […] Fluorescence was converted in nmol/mg cell proteins using a calibration curve previously set.

In series [6] the test system is A549/DOX cells. Kind of series: intracellular accumulation of doxorubicin in A549/DOX cells. As to conditions: 24 h with 5 μM doxorubicin, compound at 1 and 3 μM, dose-dependent. Type of series: cell-based, human. The protocol:
as §3

Series [7] concerns P-gp KO HT29/DOX cells. Kind of series: intracellular accumulation of doxorubicin in P-gp KO HT29/DOX cells. As to conditions: 24 h with 5 μM doxorubicin, compound at 1 and 3 μM. The format is cell-based, human. As to the method:
as §3

Series [8] concerns P-gp KO A549/DOX cells. Kind of series: intracellular accumulation of doxorubicin in P-gp KO A549/DOX cells. Type of series: cell-based, human. As to conditions: 24 h with 5 μM doxorubicin, compound at 1 and 3 μM. As to the method:
as §3

Series [9] has as its target hCA I (Homo sapiens, UniProt P00915). Kind of series: stopped-flow CO2 hydrase assay, hCA I. As to conditions: read-out: Ki hCA I; stopped-flow technique, mean from three different assays.
Excerpt: (§5) An SX.18MV-R Applied Photophysics (Oxford, U.K.) stopped-flow instrument has been used to assay the catalytic/inhibition of various CA isozymes.[38] […] The inhibition constants were obtained by nonlinear least-squares methods using the Cheng–Prusoff equation, as reported earlier,[32] and represent the mean from at least three different determinations.
The target in series [10] is hCA II (Homo sapiens, UniProt P00918). Kind of series: stopped-flow CO2 hydrase assay, hCA II. To be noted: read-out: Ki hCA II; stopped-flow technique, mean from three different assays.
Excerpt: as §5
The target in series [11] is hCA IX (Homo sapiens, UniProt Q16790). Kind of series: stopped-flow CO2 hydrase assay, hCA IX. To be noted: read-out: Ki hCA IX; stopped-flow technique, mean from three different assays.
Excerpt: as §5
The subject of series [12] is HT29 cells. Briefly: doxorubicin cytotoxicity in HT29 cells. The format is cell-based. To be noted: Homo sapiens, HT-29, 72 h, MTT.
Description: Human chemosensitive colon cancer HT29 cells, lung cancer A549 cells, not-transformed human colon epithelial EpiCoC cells, and lung epithelial BEAS-2B cells were purchased from ATCC (Manassas, VA). […] Cells were maintained in media supplemented with 10% v/v fetal bovine serum, 1% v/v penicillin–streptomycin, and 1% v/v L-glutamine. […] Knockout efficacy was evaluated by immunoblotting, as reported below.
Series [13] has as its system hCA XII KO HT29/DOX cells. Briefly: doxorubicin cytotoxicity enhancement assay in hCA XII KO HT29/DOX cells. As to conditions: Homo sapiens, HT-29. The format is cell-based.
Series [14] deals with hCA XII KO A549/DOX cells. Briefly: doxorubicin cytotoxicity enhancement assay in hCA XII KO A549/DOX cells. As to conditions: Homo sapiens. Type of series: cell-based.
The test system of series [15] is HT29 cells. Briefly: kinetic parameters of doxorubicin efflux in HT29 cells. As to conditions: doxorubicin alone. The format is cell-based, human. The protocol:
(§4) Cells were incubated for 3 h with 5 μM doxorubicin, alone or with the selected compounds, washed with PBS, trypsinized, centrifuged at 13 000g for 5 min, and resuspended in 0.5 mL of 1/1 solution ethanol/0.3 N HCl. […] To calculate the kinetic parameters, cells were incubated for 20 min with increasing (0–100 μM) concentrations of doxorubicin, alone or with the indicated compounds, then analyzed for the intracellular concentration of doxorubicin. […] The difference in the doxorubicin concentration between the two series, expressed as nmol doxorubicin extruded/min/mg cell proteins, was plotted versus the initial drug concentration.[69] Values were fitted to the Michaelis–Menten equation to calculate Vmax and Km, using the Enzfitter software (Biosoft Corporation, Cambridge, United Kingdom).

Series [16] has as its system HT29/DOX cells. Briefly: kinetic parameters of doxorubicin efflux in HT29/DOX cells. Type of series: cell-based, human. As to conditions: doxorubicin alone. The protocol:
as §4

Series [17] has as its system hCA XII KO HT29/DOX cells. Kind of series: kinetic parameters of doxorubicin efflux in hCA XII KO HT29/DOX cells. Type of series: cell-based, human. As to conditions: doxorubicin alone. The protocol: as §4
Series [18] relates to A549 cells. Kind of series: kinetic parameters of doxorubicin efflux in A549 cells. The format is cell-based, human. To be noted: doxorubicin alone. The protocol:
as §4

The test system of series [19] is A549/DOX cells. Kind of series: kinetic parameters of doxorubicin efflux in A549/DOX cells. To be noted: doxorubicin alone. Type of series: cell-based, human. The protocol:
as §4

Series [20] relates to hCA XII KO A549/DOX cells. Kind of series: kinetic parameters of doxorubicin efflux in hCA XII KO A549/DOX cells. The format is cell-based, human. As to conditions: doxorubicin alone. As to the method: as §4
In series [21] the test system is HT29/DOX cells. Briefly: cells. As to conditions: Homo sapiens, HT-29, 72 h, read-out: IC50 of doxorubicin.
Series [22] has as its system A549/DOX cells. Kind of series: cells. As to conditions: Homo sapiens, A549, 72 h, read-out: IC50 of doxorubicin.
Series [23] deals with P-gp KO HT29/DOX cells. Kind of series: cells. As to conditions: Homo sapiens, HT-29, read-out: IC50 of doxorubicin.
Series [24] relates to P-gp KO A549/DOX cells. Briefly: cells. As to conditions: Homo sapiens, A549, read-out: IC50 of doxorubicin.

T1 sequence (P08183 whole entry): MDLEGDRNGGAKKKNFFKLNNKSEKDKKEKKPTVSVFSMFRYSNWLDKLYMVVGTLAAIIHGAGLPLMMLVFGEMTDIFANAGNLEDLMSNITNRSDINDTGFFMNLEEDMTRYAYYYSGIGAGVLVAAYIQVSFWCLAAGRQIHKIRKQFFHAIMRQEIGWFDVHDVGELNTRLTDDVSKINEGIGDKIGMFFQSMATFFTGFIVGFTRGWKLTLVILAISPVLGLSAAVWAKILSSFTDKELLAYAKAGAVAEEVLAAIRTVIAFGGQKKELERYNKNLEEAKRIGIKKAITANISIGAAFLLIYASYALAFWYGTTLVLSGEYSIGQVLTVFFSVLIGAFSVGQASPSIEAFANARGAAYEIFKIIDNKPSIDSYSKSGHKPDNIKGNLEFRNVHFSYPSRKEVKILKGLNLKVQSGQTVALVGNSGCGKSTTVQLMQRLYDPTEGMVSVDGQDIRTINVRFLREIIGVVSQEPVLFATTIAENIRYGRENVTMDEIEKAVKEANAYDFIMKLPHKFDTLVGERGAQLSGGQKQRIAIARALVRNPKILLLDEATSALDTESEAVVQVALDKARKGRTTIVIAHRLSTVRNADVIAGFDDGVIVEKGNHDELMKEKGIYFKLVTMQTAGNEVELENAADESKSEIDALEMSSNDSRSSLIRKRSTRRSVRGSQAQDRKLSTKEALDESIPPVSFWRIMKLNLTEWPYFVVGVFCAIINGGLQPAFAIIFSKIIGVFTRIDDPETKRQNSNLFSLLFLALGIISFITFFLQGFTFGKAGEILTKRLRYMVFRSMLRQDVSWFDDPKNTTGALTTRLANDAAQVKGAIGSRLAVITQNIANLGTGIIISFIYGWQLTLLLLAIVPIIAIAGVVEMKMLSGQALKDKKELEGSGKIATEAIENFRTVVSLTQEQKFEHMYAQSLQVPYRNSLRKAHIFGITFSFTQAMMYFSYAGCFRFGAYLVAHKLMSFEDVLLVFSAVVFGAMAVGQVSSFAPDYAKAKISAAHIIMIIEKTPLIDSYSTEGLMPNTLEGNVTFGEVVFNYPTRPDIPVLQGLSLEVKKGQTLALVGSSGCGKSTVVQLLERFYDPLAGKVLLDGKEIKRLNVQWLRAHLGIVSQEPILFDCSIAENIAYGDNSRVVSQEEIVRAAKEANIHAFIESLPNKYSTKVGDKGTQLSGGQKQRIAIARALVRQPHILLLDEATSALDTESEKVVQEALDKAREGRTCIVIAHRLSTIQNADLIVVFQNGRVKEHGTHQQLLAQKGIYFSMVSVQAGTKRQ
T2 sequence (P33527 whole entry): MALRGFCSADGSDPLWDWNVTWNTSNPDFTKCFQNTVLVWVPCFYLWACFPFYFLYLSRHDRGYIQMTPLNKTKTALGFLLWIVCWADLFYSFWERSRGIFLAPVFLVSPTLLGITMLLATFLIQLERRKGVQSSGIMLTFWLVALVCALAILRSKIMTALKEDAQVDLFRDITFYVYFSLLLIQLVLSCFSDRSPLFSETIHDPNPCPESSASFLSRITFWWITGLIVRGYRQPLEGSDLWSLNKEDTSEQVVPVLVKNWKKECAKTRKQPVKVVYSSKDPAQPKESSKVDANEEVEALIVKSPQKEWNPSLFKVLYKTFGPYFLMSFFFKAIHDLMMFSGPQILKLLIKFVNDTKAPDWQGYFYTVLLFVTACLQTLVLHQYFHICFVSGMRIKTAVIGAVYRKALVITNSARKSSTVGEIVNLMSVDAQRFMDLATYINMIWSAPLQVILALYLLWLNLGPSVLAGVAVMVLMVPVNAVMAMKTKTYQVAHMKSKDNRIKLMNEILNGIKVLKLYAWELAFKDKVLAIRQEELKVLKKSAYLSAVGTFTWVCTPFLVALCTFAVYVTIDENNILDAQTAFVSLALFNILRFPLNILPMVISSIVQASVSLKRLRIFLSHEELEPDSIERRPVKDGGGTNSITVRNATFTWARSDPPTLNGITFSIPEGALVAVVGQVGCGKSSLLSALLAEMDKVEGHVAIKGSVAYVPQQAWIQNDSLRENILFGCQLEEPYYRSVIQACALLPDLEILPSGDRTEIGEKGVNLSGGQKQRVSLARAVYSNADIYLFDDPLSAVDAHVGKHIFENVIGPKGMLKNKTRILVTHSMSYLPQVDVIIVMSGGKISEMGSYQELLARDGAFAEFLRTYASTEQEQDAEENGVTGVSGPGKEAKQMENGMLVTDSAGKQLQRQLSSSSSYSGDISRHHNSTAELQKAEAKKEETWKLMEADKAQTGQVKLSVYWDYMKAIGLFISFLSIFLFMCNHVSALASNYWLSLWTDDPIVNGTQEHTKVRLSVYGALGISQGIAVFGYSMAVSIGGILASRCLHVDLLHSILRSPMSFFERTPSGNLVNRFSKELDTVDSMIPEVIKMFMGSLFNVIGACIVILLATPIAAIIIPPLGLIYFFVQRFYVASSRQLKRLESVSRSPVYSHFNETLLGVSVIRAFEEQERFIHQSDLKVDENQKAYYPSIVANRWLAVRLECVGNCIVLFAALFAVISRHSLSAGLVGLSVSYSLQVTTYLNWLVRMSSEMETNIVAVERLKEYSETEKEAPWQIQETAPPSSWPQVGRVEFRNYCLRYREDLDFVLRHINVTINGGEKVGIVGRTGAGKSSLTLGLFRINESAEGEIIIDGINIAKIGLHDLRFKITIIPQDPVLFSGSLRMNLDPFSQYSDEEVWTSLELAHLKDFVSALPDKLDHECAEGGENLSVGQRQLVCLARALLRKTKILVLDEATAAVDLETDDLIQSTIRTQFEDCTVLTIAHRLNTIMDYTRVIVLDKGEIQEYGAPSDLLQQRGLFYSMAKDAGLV
Chain of hCA I (P00915 whole entry): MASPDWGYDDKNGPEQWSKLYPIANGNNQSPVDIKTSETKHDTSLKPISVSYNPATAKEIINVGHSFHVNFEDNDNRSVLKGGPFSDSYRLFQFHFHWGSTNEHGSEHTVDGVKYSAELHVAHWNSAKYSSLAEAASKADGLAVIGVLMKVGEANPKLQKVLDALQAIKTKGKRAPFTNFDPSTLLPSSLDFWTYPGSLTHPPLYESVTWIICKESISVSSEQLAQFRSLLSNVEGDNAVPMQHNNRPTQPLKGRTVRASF

`CCOC(=O)C(C)c1cccc(C(=O)c2ccccc2)c1` (stereo not drawn) [KEE, ketoprofen ethyl ester]: in [1], the half-life at 1 μM is at most 2 h.

Regarding `COc1cc(C(=O)OCCCCCCN(CCCOC(=O)c2cc(OC)c(OC)c(OC)c2)CCCOc2ccc3ccc(=O)oc3c2)cc(OC)c1OC` [Compound 14, 6-((3-((2-Oxo-2H-chromen-7-yl)oxy)propyl)(3-((3,4,5-trimethoxybenzoyl)oxy)propyl)amino)hexyl 3,4,5-Trimethoxybenzoate], the EC50 in series [2] is 0.18 ± 0.03 µM. Also, the “EC50 MRP1” value in series [3] was “completely inactive”. Further, in series [4], the “EC50 BCRP” value is “completely inactive”. Moreover, the “intracellular retention of doxorubicin” value in [5] is “increased”; in [6] it was “increased”; in series [7] it was “did not significantly increase”; in [8], “did not significantly increase”. Also, the values for the Ki in series [9], in [10] and in series [11] were over 10 µM, over 10 µM and 0.0827 µM, respectively.

Consider `COc1cccc2c1C(=O)c1c(O)c3c(c(O)c1C2=O)C[C@@](O)(C(=O)CO)C[C@@H]3O[C@H]1C[C@H](N)[C@H](O)[C@H](C)O1` [DOX, doxorubicin], for which the IC50 in series [12] turned out to be 1.38 ± 0.03 µM; in [13], 1.3 ± 0.06 µM; in series [14], 5.44 ± 1.5 µM; in [21], 12 ± 0.85 µM; in series [22], 15.5 ± 0.93 µM; in [23], 0.46 ± 0.013 µM. In addition, the concentration for half-maximal inhibition (IC50) in series [24] stood at 0.9 ± 0.013 µM. The Km in series [15] is 0.55 ± 0.028 µM; in series [16], 0.54 ± 0.01 µM; in series [17], 0.58 ± 0.03 µM; in [18] it was 0.47 ± 0.017 µM; in series [19], 0.45 ± 0.019 µM; in [20], 0.55 ± 0.028 µM. Moreover, the “Vmax of doxorubicin efflux” value amounted to 3.21 ± 0.04 µmol/min in series [15]; 8.10 ± 0.15 µmol/min in series [16]; 5.47 ± 0.12 µmol/min in series [17]; 2.35 ± 0.08 µmol/min in [18]; 7.51 ± 0.31 µmol/min in [19]; 4.08 ± 0.32 µmol/min in [20].
